According to BindingDB's records for doi:10.1006/jmbi.2000.3966 (Max-Planck-Institut Fuer Biochemie, 2000):

What was measured:
Assay in all cases: Determination of Inhibition Constants
Conditions in all cases: pH 8; 25 °C
[1] = target: Tissue-type plasminogen activator (Homo sapiens, UniProt P00750)
Method: (§1) The measurements were carried out on a microplate reader. Two concentrations of the substrate and five concentrations of the inhibitor were used in the assay. […] The Ki-values were calculated according to Dixon using a linear regression program. The Ki-values reported are means from at least three determinations.

Serine protease 1 = target: T1, Serine protease 1 (Bos taurus, UniProt P00760)
T1 sequence (P00760 whole entry): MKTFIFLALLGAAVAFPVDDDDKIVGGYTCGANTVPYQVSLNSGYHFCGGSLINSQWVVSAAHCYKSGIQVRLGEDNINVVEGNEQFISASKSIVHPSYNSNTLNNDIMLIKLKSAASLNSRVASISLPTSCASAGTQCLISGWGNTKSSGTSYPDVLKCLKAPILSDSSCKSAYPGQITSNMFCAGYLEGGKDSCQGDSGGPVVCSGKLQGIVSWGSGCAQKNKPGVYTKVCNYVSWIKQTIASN
Method: as §1

[2] = target: Urokinase-type plasminogen activator (Homo sapiens, UniProt P00749)
Method: as §1

Chain of Tissue-type plasminogen activator (P00750 whole entry): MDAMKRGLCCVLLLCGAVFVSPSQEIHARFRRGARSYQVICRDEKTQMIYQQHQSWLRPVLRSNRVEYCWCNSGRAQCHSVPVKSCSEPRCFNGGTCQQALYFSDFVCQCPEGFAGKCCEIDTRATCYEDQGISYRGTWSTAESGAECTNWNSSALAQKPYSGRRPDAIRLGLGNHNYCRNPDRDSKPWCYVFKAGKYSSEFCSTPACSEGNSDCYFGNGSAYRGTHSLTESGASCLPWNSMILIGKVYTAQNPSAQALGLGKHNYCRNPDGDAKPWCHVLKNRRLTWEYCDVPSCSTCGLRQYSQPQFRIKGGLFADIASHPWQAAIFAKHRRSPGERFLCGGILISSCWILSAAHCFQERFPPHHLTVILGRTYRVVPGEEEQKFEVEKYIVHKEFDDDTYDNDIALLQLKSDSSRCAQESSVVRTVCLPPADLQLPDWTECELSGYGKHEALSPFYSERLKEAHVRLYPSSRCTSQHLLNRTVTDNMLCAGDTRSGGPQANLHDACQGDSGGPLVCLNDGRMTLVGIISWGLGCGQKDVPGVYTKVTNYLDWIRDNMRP

Ki [1]	Ki (Serine protease 1)	Ki [2]	Structure (SMILES)
8.7 µM	0.6 µM		CC(C)c1cc(C(C)C)c(S(=O)(=O)N[C@@H](Cc2cccc(C(=N)N)c2)C(=O)N2CCN(C(=O)CCN)CC2)c(C(C)C)c1 [3-[3-(4-beta-alanylpiperazin-1-yl)-3-oxo-2-({[2,4,6-tris(1-methylethyl)phenyl]sulfonyl}amino)propyl]benzenecarboximidamide]
> 1000 µM	46 µM	2.4 µM	NC(N)=Nc1ccc(CNC(=O)NC23CC4CC(CC(C4)C2)C3)cc1 [3-adamantan-1-yl-1-[(4-carbamimidamidophenyl)methyl]urea]
4.9 µM	0.037 µM	0.41 µM	CCOC(=O)N1CCN(C(=O)C(Cc2cccc(C(=N)N)c2)NS(=O)(=O)c2c(C(C)C)cc(C(C)C)cc2C(C)C)CC1 (stereo not given)

Structure (SMILES)	Ki [1]	Ki (Serine protease 1)	Ki [2]
N=C(N)NC(=O)c1nc(Cl)c(N)nc1N [3,5-diamino-N-carbamimidoyl-6-chloropyrazine-2-carboxamide]	> 1000 µM	32 µM	
